From patent US9302999B2, “Substituted triazoles as herbicides” (E. I. DU PONT DE NEMOURS AND COMPANY, priority 2012, dated 2016)

What was measured:
Format in all cases: in vivo
[1] = system: barnyardgrass (Echinochloa crus-galli); assay: Test A pre-/postemergence: barnyardgrass
Outline: (§1)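 Seeds were sown in loam/sand blend and sprayed preemergence (directed soil spray) and, simultaneously, postemergence at 2–10 cm, one- to two-leaf stage, using compounds in non-phytotoxic solvent with surfactant. After ~10 days in greenhouse, injury was rated visually versus untreated controls, 0 (no effect) to 100 (complete control).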

[2] = system: crabgrass, large (large crabgrass, Digitaria sanguinalis); assay: Test A pre-/postemergence: crabgrass, large
Outline: as §1

[3] = system: foxtail, giant (giant foxtail, Setaria faberii); assay: Test A pre-/postemergence: foxtail, giant
Outline: as §1

[4] = system: morningglory (Ipomoea spp.); assay: Test A pre-/postemergence: morningglory
Outline: as §1

[5] = system: pigweed (Amaranthus retroflexus); assay: Test A pre-/postemergence: pigweed
Outline: as §1

[6] = system: velvetleaf (Abutilon theophrasti); assay: Test A pre-/postemergence: velvetleaf
Outline: as §1

[7] = system: wheat (Triticum aestivum); assay: Test A pre-/postemergence: wheat
Outline: as §1

[8] = system: corn (Zea mays); assay: Test A pre-/postemergence: corn
Outline: as §1

[9] = system: rice (Oryza sativa); assay: Test B flooded paddy: rice; settings: Flood; 125 g ai/ha; applied to paddy water at 2-leaf stage; visually evaluated after 13 to 15 days
Outline: (§2)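 Plants were grown to the 2-leaf stage and pots flooded to 3 cm above soil. Compounds were applied directly into the paddy water, with depth kept for the test. After 13–15 days in greenhouse, response was rated visually against controls on a 0 (no effect) to 100 (complete control) scale.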

[10] = system: sedge, umbrella (small-flower umbrella sedge Cyperus difformis); assay: Test B flooded paddy: sedge, umbrella; settings: Flood; 125 g ai/ha; applied to paddy water at 2-leaf stage; visually evaluated after 13 to 15 days
Outline: as §2

[11] = system: ducksalad (Heteranthera limosa); assay: Test B flooded paddy: ducksalad; settings: Flood; 125 g ai/ha; applied to paddy water at 2-leaf stage; visually evaluated after 13 to 15 days
Outline: as §2

[12] = system: barnyardgrass (Echinochloa crus-galli); assay: Test B flooded paddy: barnyardgrass; settings: Flood; 125 g ai/ha; applied to paddy water at 2-leaf stage; visually evaluated after 13 to 15 days
Outline: as §2

[13] = Postemergence, 125 g ai/ha, 0 to 100 scale, 0 is no effect, 100 is complete control
[14] = Postemergence, 500 g ai/ha, 0 to 100 scale, 0 is no effect, 100 is complete control
[15] = Preemergence, 125 g ai/ha, 0 to 100 scale where 0 is no effect and 100 is complete control
[16] = Preemergence, 500 g ai/ha, 0 to 100 scale (0 no effect, 100 complete control)

Row | Compound | Plant response rating, Barnyardgrass [1, 13] | Barnyardgrass plant response rating [1, 14] | Plant response rating, Barnyardgrass [1, 15] | Plant response rating, Barnyardgrass [1, 16] | Plant response rating, Crabgrass, Large [2, 13] | Crabgrass, Large plant response rating [2, 14] | Plant response rating, Crabgrass, Large [2, 15] | Plant response rating, Crabgrass, Large [2, 16] | Plant response rating, Foxtail, Giant [3, 13] | Foxtail, Giant plant response rating [3, 14] | Plant response rating, Foxtail, Giant [3, 15] | Plant response rating, Foxtail, Giant [3, 16] | Plant response rating, Morningglory [4, 13] | Morningglory plant response rating [4, 14] | Plant response rating, Morningglory [4, 15] | Plant response rating, Morningglory [4, 16] | Plant response rating, Pigweed [5, 13] | Pigweed plant response rating [5, 14] | Plant response rating, Pigweed [5, 15] | Plant response rating, Pigweed [5, 16] | further results
1 | FC(F)(F)c1cccc(-n2nc(Oc3ccnc(C(F)(F)F)c3)c(C3CC3)n2)c1 [Compound 199] | 10 | 10 | 0 | 0 | 10 | 20 | 20 | 70 | 10 | 20 | 0 | 50 | 10 | 20 | 0 | 0 | 20 | 60 | 10 | 30 | Plant response rating, Velvetleaf [6, 13]: 10; Velvetleaf plant response rating [6, 14]: 10; Plant response rating, Velvetleaf [6, 15]: 0; Plant response rating, Velvetleaf [6, 16]: 0; Plant response rating, Wheat [7, 13]: 0; Wheat plant response rating [7, 14]: 0; Plant response rating, Wheat [7, 15]: 0; Plant response rating, Wheat [7, 16]: 0; Plant response rating, Corn [8, 13]: 10; Corn plant response rating [8, 14]: 20; Plant response rating, Corn [8, 15]: 0; Plant response rating, Corn [8, 16]: 0; Plant response rating, Rice (0 to 100 scale, 0 is no effect, 100 is complete control) [9]: 0; Plant response rating, Sedge, Umbrella (0 to 100 scale, 0 is no effect, 100 is complete control) [10]: 0; Plant response rating, Ducksalad (0 to 100 scale, 0 is no effect, 100 is complete control) [11]: 0; Plant response rating, Barnyardgrass (0 to 100 scale, 0 is no effect, 100 is complete control) [12]: 0
2 | FC(F)(F)c1cccc(-n2nc(Oc3ccnc(C(F)(F)F)c3)c(C3CC3)n2)c1 [Compound 200] | 0 | 10 | 0 | 0 | 10 | 40 | 80 | 100 | 10 | 20 | 70 | 100 | 10 | 30 | 0 | 10 | 50 | 100 | 50 | 100 | Plant response rating, Velvetleaf [6, 13]: 10; Velvetleaf plant response rating [6, 14]: 40; Plant response rating, Velvetleaf [6, 15]: 0; Plant response rating, Velvetleaf [6, 16]: 0; Plant response rating, Wheat [7, 13]: 0; Wheat plant response rating [7, 14]: 0; Plant response rating, Wheat [7, 15]: 0; Plant response rating, Wheat [7, 16]: 0; Plant response rating, Corn [8, 13]: 10; Corn plant response rating [8, 14]: 20; Plant response rating, Corn [8, 15]: 0; Plant response rating, Corn [8, 16]: 0; Plant response rating, Rice (0 to 100 scale, 0 is no effect, 100 is complete control) [9]: 0; Plant response rating, Sedge, Umbrella (0 to 100 scale, 0 is no effect, 100 is complete control) [10]: 0; Plant response rating, Ducksalad (0 to 100 scale, 0 is no effect, 100 is complete control) [11]: 0; Plant response rating, Barnyardgrass (0 to 100 scale, 0 is no effect, 100 is complete control) [12]: 0
